Test results: ChEMBL document CHEMBL1806445, “Limonoids from seeds of Thai Xylocarpus moluccensis” (Bioorg Med Chem Lett, 2011)
Active and inactive are the calls of the source. The calls are words filed in the database; no cut-off is given here.

Experiments:
RAW264.7 [1] = test: Inhibition of LPS-induced nitric oxide production in mouse RAW264.7 cells assessed as nitrite level after 24 hrs by Griess method; format: functional, cell-based; details: for IC50: RAW264.7, 24 h
Neutrophil = test: Inhibition of superoxide anion generation in fMLP-stimulated human neutrophils; format: functional, cell-based
RAW264.7 [2] = test: Inhibition of LPS-induced nitric oxide production in mouse RAW264.7 cells assessed as nitrite level upto 50 uM after 24 hrs by Griess method; format: functional, cell-based
RAW264.7 [3] = test: Cytotoxicity against mouse RAW264.7 cells after 24 hrs by MTT assay; format: cell-based; details: RAW264.7, 24 h

Compound | inhibition (RAW264.7 [1]) | IC50 (RAW264.7 [1]) | IC50 (Neutrophil) | inhibition (RAW264.7 [2]) | IC50 (RAW264.7 [3])
COC(=O)C[C@H]1[C@]2(C)C[C@@]3(OC(=O)C(C)C)[C@]1(C)[C@H]1CC[C@]4(C)C(=C1C(=O)[C@@]3(O)[C@H]2OC(C)=O)CC(=O)O[C@H]4c1ccoc1 [THAIMOLUCCENSIN C] | Dose-dependent effect | 32.3 µM | > 27 µM |  | 
COC(=O)C[C@@H]1C(C)(C)C(=O)C=C[C@@]1(C)[C@H]1CC[C@@]2(C)[C@H](c3ccoc3)OC(=O)C[C@]2(O)[C@]1(C)O [THAIMOLUCCENSIN A] | Dose-dependent effect | 45.8 µM |  |  | 
COC(=O)C[C@H]1C(C)(C)[C@H](OC(C)=O)[C@]2(O)CC3=C4CC(=O)O[C@@H](c5ccoc5)[C@]4(C)CC[C@@H]3[C@@]1(C)C2=O [2-HYDROXYFISSINOLIDE] | Dose-dependent effect | 52.1 µM | > 27 µM |  | 
COC(=O)C[C@H]1[C@]2(C)C[C@@]3(O)[C@]1(C)[C@H]1CC[C@]4(C)C(=C1C(=O)[C@@]3(OC)[C@H]2OC(C)=O)CC(=O)O[C@H]4c1ccoc1 [MOLUCCENSIN I] |  |  | > 27 µM | inactive | 
CC1(C)C(=O)C=C[C@]2(C)[C@H]3CC[C@@]4(C)[C@H](c5ccoc5)OC(=O)[C@H]5O[C@]54[C@]3(C)C(=O)C[C@@H]12 [DEACETOXY-7-OXOGEDUNIN] | Dose-dependent effect | 22.8 µM |  |  | 16.7 µM
CC1(C)C(=O)C=C[C@]2(C)[C@H]3CC[C@@]4(C)[C@H](c5ccoc5)OC(=O)[C@H]5O[C@]54[C@]3(C)[C@H](O)C[C@@H]12 [DEACETYLGEDUNIN] | Dose-dependent effect | < 10 µM |  |  | 37.6 µM
COC(=O)C[C@H]1C(C)(C)[C@H](O)[C@@H]2CC3=C4CC(=O)O[C@@H](c5ccoc5)[C@]4(C)CC[C@@H]3[C@@]1(C)C2=O [PROCERANOLIDE] | Dose-dependent effect | 50.7 µM | > 27 µM |  | 
COC(=O)C[C@H]1[C@]2(C)CO[C@@]3(O)[C@]1(C)[C@H]1CC[C@]4(C)[C@@H](CC(=O)O[C@H]4c4ccoc4)C1=C[C@@]3(O)[C@H]2OC(C)=O [THAIMOLUCCENSIN B] |  |  | > 27 µM |  | 
COC(=O)C[C@H]1[C@]2(C)C[C@]3(O)[C@@](O)(C(=O)C4=C(CC[C@]5(C)C4=CC(=O)O[C@H]5c4ccoc4)[C@]13C)[C@H]2OC(C)=O [MOLUCCENSIN H] |  |  | > 27 µM | inactive | 
COC(=O)C[C@H]1C(C)(C)C(=O)[C@@H]2CC3=C4CC(=O)O[C@@H](c5ccoc5)[C@]4(C)CC[C@@H]3[C@@]1(C)C2=O [MEXICANOLIDE] |  |  | > 27 µM | inactive | 
